{
  "source": "patent US8211854B2",
  "about": "“Methods for inhibiting protein kinases” (Schering Corporation, priority 2005, dated 2012)",
  "data": [
    {"biological_target": "T1, His-CHK1 (Homo sapiens, UniProt O14757)", "T1 construct": "fused on or other part: His tag", "T1 sequence (O14757 1-265 limits assumed)": "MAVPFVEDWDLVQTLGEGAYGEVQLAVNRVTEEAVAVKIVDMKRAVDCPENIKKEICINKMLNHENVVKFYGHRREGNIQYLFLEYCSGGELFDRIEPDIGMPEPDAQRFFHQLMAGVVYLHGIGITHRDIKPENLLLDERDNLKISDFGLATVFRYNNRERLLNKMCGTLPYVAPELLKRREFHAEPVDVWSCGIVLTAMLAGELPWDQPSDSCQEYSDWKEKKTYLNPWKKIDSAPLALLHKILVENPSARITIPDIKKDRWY", "experiment": "CHK1 SPA Assay", "format": "biochemical", "conditions": "not given", "units": {"IC50": "nM"}, "values": [
      {"smiles": "Cn1cc(-c2cnn3c(N)c(Br)c(CC4CCCNC4)nc23)cn1", "note": "(stereo not drawn)", "IC50": 9},
      {"smiles": "Cc1cc(Nc2cc(C3CCCNC3)nc3c(-c4cnn(C)c4)cnn23)sn1", "note": "(stereo not drawn)", "IC50": 7}
    ]},
    {"biological_target": "T1, His-CHK1", "experiment": "CHK1 SPA Assay", "format": "biochemical", "conditions": "read-out: CHK1 inhibitory activity (IC50)", "units": {"IC50": "nM"}, "values": [
      {"smiles": "Cn1cc(-c2cnn3c(N)c(I)c(C4CCCNC4)nc23)cn1", "note": "(stereo not drawn)", "IC50": 3},
      {"smiles": "CC#Cc1c(C2CCCNC2)nc2c(-c3cnn(C)c3)cnn2c1N", "note": "(stereo not drawn)", "IC50": 45}
    ]},
    {"biological_target": "T1, His-CHK1", "experiment": "CHK1 SPA Assay", "format": "biochemical", "conditions": "recombinant His-CHK1, biotinylated CDC25C peptide substrate, 1 μM ATP, 2 hours at room temperature; read-out: CHK1 inhibitory activity (IC50)", "units": {"IC50": "nM"}, "values": [
      {"smiles": "Nc1c(Br)c(C2CCCNC2)nc2c(-c3ccoc3)cnn12", "note": "(stereo not drawn)", "IC50": 25},
      {"smiles": "N#Cc1cc(-c2cnn3c(N)c(Br)c(C4CCCNC4)nc23)co1", "note": "(stereo not drawn)", "IC50": 4},
      {"smiles": "Nc1c(Br)c(N2CC[C@H](N)C2)nc2c(-c3ccsc3)cnn12", "IC50": 430},
      {"smiles": "Cn1cc(-c2cnn3c(N)c(Br)c(C4CNCCS4)nc23)cn1", "note": "(stereo not drawn)", "IC50": 6},
      {"smiles": "Cn1cc(-c2cnn3c(N)c(Br)c(CCCN)nc23)cn1", "IC50": 11},
      {"smiles": "Cn1cc(-c2cnn3c(N)cc(CC4CCNCC4)nc23)cn1", "IC50": 400},
      {"smiles": "N#Cc1ccc(-c2cnn3c(N)cc(C4CCCNC4)nc23)cc1", "note": "(stereo not drawn)", "IC50": 120},
      {"smiles": "Cn1cc(-c2cnn3c(N)c(-c4cccs4)c(C4CCCNC4)nc23)cn1", "note": "(stereo not drawn)", "IC50": 90},
      {"smiles": "Cn1cc(-c2cnn3c(Nc4ccc(-n5ccnc5)cc4)cc(C4CCCNC4)nc23)cn1", "note": "(stereo not drawn)", "IC50": 60},
      {"smiles": "CN(C)c1cccc(Nc2cc(C3CCCNC3)nc3c(-c4cnn(C)c4)cnn23)c1", "note": "(stereo not drawn)", "IC50": 250},
      {"smiles": "Cn1cc(-c2cnn3c(Nc4cccc(S(N)(=O)=O)c4)cc(C4CCCNC4)nc23)cn1", "note": "(stereo not drawn)", "IC50": 390},
      {"smiles": "Cn1cc(-c2cnn3c(Nc4ccncc4)cc(C4CCCNC4)nc23)cn1", "note": "(stereo not drawn)", "IC50": 100},
      {"smiles": "Cc1cc(Nc2cc(C3CCCNC3)nc3c(-c4coc(C#N)c4)cnn23)sn1", "note": "(stereo not drawn)", "IC50": 7},
      {"smiles": "Cc1cc(Nc2cc(N3CC[C@@H](N)C3)nc3c(-c4cnn(C)c4)cnn23)sn1", "IC50": 50}
    ]}
  ]
}
